ChEMBL document CHEMBL5356948, “Microtubule stabilising peptides: new paradigm towards management of neuronal disorders” (RSC Med Chem, 2023)
Blank lines part the entries; values can stand above or below the molecule they belong to. Peptide text beside a SMILES is read from it.

Tests used:
[1] = target: Tubulin; assay: Binding affinity to microtubules (unknown origin) assessed as dissociation constant; format: protein-complex assay, Homo sapiens
[2] = target: T1, Tubulin (Homo sapiens) (UniProt P68371+Q9H4B7+P0DPH7+P68366+Q13509+Q71U36+P04350+Q3ZCM7+P07437+P68363+Q9BQE3+Q6PEY2+Q13885+Q9BVA1+Q9BUF5); assay: Binding affinity to tubulin (unknown origin) assessed as binding constant by […] analysis; format: protein-complex assay
[3] = target: T1, Tubulin (Homo sapiens); assay: Binding affinity to microtubules (unknown origin) assessed as binding constant by turbidity assay; format: protein-complex assay
[4] = target: T1, Tubulin (Homo sapiens); assay: Binding affinity to tubulin (unknown origin) assessed as binding constant; format: protein-complex assay
[5] = Ratio of drug concentration in CSF to plasma in Sprague-Dawley rat at 15 mg/kg,IV measured after 1 hrs; format: ADME, organism-based; details: CSF and plasma

SMILES: CC[C@H](C)[C@H](NC(=O)[C@H](CO)NC(=O)[C@@H](NC(=O)[C@H](C)NC(=O)[C@@H](N)CC(N)=O)C(C)C)C(=O)N[C@@H](CCC(N)=O)C(=O)O (H-NAVSIQ-OH)
Activity [2]: 1.14 10^3/M

SMILES: CC(C)C[C@H](NC(=O)[C@@H](N)CO)C(=O)N[C@@H](CCCCN)C(=O)N1CCC[C@H]1C(=O)N[C@@H](C)C(=O)N[C@@H](C)C(=O)N[C@@H](CC(N)=O)C(=O)N[C@@H](CC(C)C)C(=O)N1CCC[C@H]1C(=O)N[C@@H](CC(C)C)C(=O)N[C@@H](CCCNC(=N)N)C(=O)N[C@@H](Cc1ccccc1)C(=O)O (H-SLKPAANLPLRF-OH)
Kb [4]: 2.35 10^5/M

SMILES: CC[C@H](C)[C@H](NC(=O)[C@H](CO)NC(=O)[C@@H](NC(=O)[C@@H]1CCCN1C(=O)[C@H](C)NC(=O)[C@@H](N)CC(N)=O)C(C)C)C(=O)N1CCC[C@H]1C(=O)N[C@@H](CCC(N)=O)C(=O)O [DAVUNETIDE]
Kp at 1 h [5]: 0.138

More lines, now with the values ahead:

Kd [1]: 64.1 µM
SMILES: CC[C@H](C)[C@H](NC(=O)[C@H](CCC(N)=O)NC(=O)[C@@H](NC(=O)[C@H](CO)NC(=O)CNC(=O)CNC(=O)CNC(=O)[C@@H]1CCCN1C(=O)[C@@H](NC(=O)[C@H](Cc1c[nH]cn1)NC(=O)[C@H](CCCCN)NC(=O)[C@H](CCCCN)NC(=O)CNC(=O)CNC(=O)CNC(=O)[C@@H](N)CS)C(C)C)C(C)C)C(=O)N[C@H](C(=O)N[C@@H](Cc1ccc(O)cc1)C(=O)N[C@@H](CCCCN)C(=O)N1CCC[C@H]1C(=O)N[C@H](C(=O)N[C@@H](CC(=O)O)C(=O)N[C@@H](CC(C)C)C(=O)O)C(C)C)C(C)C

Kb [3]: 2.65 10^4/M
SMILES: CC(C)C[C@H](NC(=O)[C@H](Cc1ccccc1)NC(=O)[C@@H](NC(=O)[C@H](CCC(=O)O)NC(=O)[C@@H](N)CC(N)=O)C(C)C)C(=O)N[C@@H](CC(=O)O)C(=O)N[C@H](C(=O)N[C@@H](CCC(N)=O)C(=O)O)[C@@H](C)O (H-NEVFLDTQ-OH)
